Measured values as given in US20260337231A1, “METHOD FOR PRODUCING CYCLIC PEPTIDE COMPOUND” (CHUGAI SEIYAKU KABUSHIKI KAISHA, priority 2023, published 2026).

Experiments:
[1] = Crystal form after drying under reduced pressure (powder X-ray diffraction); type: physicochemical
Description: The amorphous powder of Compound 1 (10.7 mg) was dissolved in 2-propanol (32.1 μL), and about 0.1 mg of the crystal obtained in Example 3-1 was added. Thereafter, heptane ([…]) was added, and the mixture was shaken at room temperature for 3 hours. Furthermore, heptane (21.4 μL) was added, and after shaking at room temperature for 2 hours, heptane (21.4 μL) was added and the mixture was shaken at room temperature for 3 hours. Heptane (21.4 μL) was further added, and the mixture was shaken at room temperature for 15 hours, thereby obtaining a crystal (form E) of compound 1. Single crystal X-ray structural analysis was performed on the obtained crystal (Example 4-8), and it was confirmed to be a 2-propanol/heptane/water solvate. […] The obtained crystal (form E) was dried under reduced pressure, and powder X-ray diffraction measurement was performed (Example 4-3).
The amorphous powder of Compound 1 (9.0 mg) was dissolved in ethanol (27.0 μL), heptane (27.0 μL) was added, and the mixture was shaken at room temperature for 4 minutes. About 0.1 mg of the crystal obtained in Example 3-4 was added, and the mixture was shaken at room temperature for 1 minute to obtain a crystal of compound 1. Single crystal X-ray structural analysis was performed (Example 4-9), confirming that the obtained crystal is an ethanol/water solvate crystal (form H). […] The obtained crystal (form H) was dried under reduced pressure, and powder X-ray diffraction measurement was performed (Example 4-3).
The amorphous powder of Compound 1 (10.9 mg) was dissolved in ethyl acetate (32.7 μL), heptane (32.7 μL) was added, and the mixture was shaken at room temperature for 4 minutes. About 0.1 mg of the crystal obtained in Example 3-5 was added, and the mixture was shaken at room temperature for 1 minute, thereby obtaining a crystal of compound 1. Single crystal X-ray structural analysis was performed (Example 4-9), confirming that the obtained crystal is an ethyl acetate/water solvate crystal (form C). […] The obtained crystal (form C) was dried under reduced pressure, and powder X-ray diffraction measurement was performed (Example 4-3).
The crystal (form A, 6.8 mg) of compound 1 obtained in Example 3-8 was dissolved in dimethyl sulfoxide (0.12 mL), and the mixture was shaken and stirred at room temperature for 13 days. Furthermore, water (1 μL) was added and the mixture was stirred at room temperature for 34 days to obtain a crystal of compound 1. The obtained crystal was confirmed to be a dimethyl sulfoxide/water solvate crystal (form L) by single crystal X-ray structural analysis (Example 4-8). […] Powder X-ray diffraction measurement (Example 4-3) on the crystal obtained by performing the same procedure confirmed that the form L is a solvate crystal that is amorphized by drying under reduced pressure.
To the crystal (form B, 45.8 mg) of compound 1, propylene glycol (0.12 mL) was added, and the mixture was stirred at room temperature for 5 minutes. Furthermore, propylene glycol (0.020 mL) was added, and the mixture was stirred at 40° C. for 5 minutes. Thereafter, propylene glycol (0.070 mL) was added, the mixture was stirred at 40° C. for 5 minutes and further allowed to stand still for 5 hours. Propylene glycol (0.070 mL) was further added, and the mixture was stirred at 35° C. for overnight. Then, propylene glycol (0.070 mL) was added and the mixture was stirred for about 1 minute to obtain a wet powder of compound 1. […]

[2] = Thermogravimetry-differential thermal analysis (TG-DTA); type: physicochemical; settings: 10° C./min, nitrogen, at 157° C., Example 3-17
Description: The thermogravimetry-differential thermal analysis (TG-DTA) for Example 3-8, Example 3-9, Example 3-12, Example 3-13, Example 3-17, and Example 3-19 was performed under the following conditions. • Measurement apparatus: STA7200RV+AS-3T (manufactured by Hitachi High-Tech Science Corporation) • Measurement range: 30 to 350° C. • Heating rate: 10° C./min • Atmosphere: nitrogen • Measurement: The sample was weighed in an open aluminum pan and covered with a mesh to perform the measurement.

SMILES | transformation after drying under reduced pressure ([1]; drying under reduced pressure) | also measured
CCC[C@H]1C(=O)N[C@@H]([C@@H](C)CC)C(=O)N2CCC[C@H]2C(=O)N(C)[C@H]2C/C=C\CCN(C2=O)[C@@H](Cc2ccc(C(F)(F)F)cc2)C(=O)N(C)CC(=O)N[C@@H](CCc2ccc(C(F)(F)F)c(OC)c2)C(=O)N2C[C@H](OCC)C[C@H]2C(=O)N(C)C2(CCC2)C(=O)N(C)[C@@H](C2CCCC2)C(=O)N(C)[C@H](C(=O)N(C)C)CC(=O)N1C [form E] | transformed into the hydrate crystal (form A) | –
CCC[C@H]1C(=O)N[C@@H]([C@@H](C)CC)C(=O)N2CCC[C@H]2C(=O)N(C)[C@H]2C/C=C\CCN(C2=O)[C@@H](Cc2ccc(C(F)(F)F)cc2)C(=O)N(C)CC(=O)N[C@@H](CCc2ccc(C(F)(F)F)c(OC)c2)C(=O)N2C[C@H](OCC)C[C@H]2C(=O)N(C)C2(CCC2)C(=O)N(C)[C@@H](C2CCCC2)C(=O)N(C)[C@H](C(=O)N(C)C)CC(=O)N1C [form M] | – | transformation after drying under reduced pressure ([1]; dried under reduced pressure at room temperature for overnight): transformed into a form N crystal
CCC[C@H]1C(=O)N[C@@H]([C@@H](C)CC)C(=O)N2CCC[C@H]2C(=O)N(C)[C@H]2C/C=C\CCN(C2=O)[C@@H](Cc2ccc(C(F)(F)F)cc2)C(=O)N(C)CC(=O)N[C@@H](CCc2ccc(C(F)(F)F)c(OC)c2)C(=O)N2C[C@H](OCC)C[C@H]2C(=O)N(C)C2(CCC2)C(=O)N(C)[C@@H](C2CCCC2)C(=O)N(C)[C@H](C(=O)N(C)C)CC(=O)N1C [form N] | – | weight reduction [2]: about 11%
CCC[C@H]1C(=O)N[C@@H]([C@@H](C)CC)C(=O)N2CCC[C@H]2C(=O)N(C)[C@H]2C/C=C\CCN(C2=O)[C@@H](Cc2ccc(C(F)(F)F)cc2)C(=O)N(C)CC(=O)N[C@@H](CCc2ccc(C(F)(F)F)c(OC)c2)C(=O)N2C[C@H](OCC)C[C@H]2C(=O)N(C)C2(CCC2)C(=O)N(C)[C@@H](C2CCCC2)C(=O)N(C)[C@H](C(=O)N(C)C)CC(=O)N1C [form H] | transformed into the hydrate crystal (form B) | –
CCC[C@H]1C(=O)N[C@@H]([C@@H](C)CC)C(=O)N2CCC[C@H]2C(=O)N(C)[C@H]2C/C=C\CCN(C2=O)[C@@H](Cc2ccc(C(F)(F)F)cc2)C(=O)N(C)CC(=O)N[C@@H](CCc2ccc(C(F)(F)F)c(OC)c2)C(=O)N2C[C@H](OCC)C[C@H]2C(=O)N(C)C2(CCC2)C(=O)N(C)[C@@H](C2CCCC2)C(=O)N(C)[C@H](C(=O)N(C)C)CC(=O)N1C [form C] | transformed into the hydrate crystal (form B) | –
CCC[C@H]1C(=O)N[C@@H]([C@@H](C)CC)C(=O)N2CCC[C@H]2C(=O)N(C)[C@H]2C/C=C\CCN(C2=O)[C@@H](Cc2ccc(C(F)(F)F)cc2)C(=O)N(C)CC(=O)N[C@@H](CCc2ccc(C(F)(F)F)c(OC)c2)C(=O)N2C[C@H](OCC)C[C@H]2C(=O)N(C)C2(CCC2)C(=O)N(C)[C@@H](C2CCCC2)C(=O)N(C)[C@H](C(=O)N(C)C)CC(=O)N1C [form L] | amorphized | –
